Experimental data taken from article PMC9414551 (Pharmaceuticals, 2022).
“And” between values parts separate entries of the source, which are not always exact repeats. Identical values can stand only once. Counter-ions that a name gives are not always drawn.

What was measured:
[1] = test system: NMDAR; conditions: rat cortical membranes
[2] = biological target: T1, NR1-2B NMDAR (Homo sapiens, UniProt Q05586+Q13224); experiment: Whole-cell manual patch-clamp REL-1017 CRC in 1 mM MgCl2; conditions: 1 mM MgCl2, 1 μM L-glutamate, −60 mV
[3] = biological target: T1, NR1-2B NMDAR; experiment: Whole-cell automated patch-clamp (QPatch) in 1 mM Mg2+; assay type: cell-based; set-up: host or cells: CHO (CHO-hNR1-h2B), constitutive expression; conditions: 1 mM Mg2+
Procedure: (§1) Data were obtained in automated patch-clamp platform. […] Statistical results of one-way analysis of variance (ANOVA) followed by Tukey’s multiple comparisons test also reported p < 0.05 (*), p < 0.01 (**), p < 0.001 (***), and p < 0.0001 (****). Glu is glutamate.
(§2) For QPatch experiments, cells were grown in T-flasks first at 37 °C, 5% CO2 for 3 to 4 h, then at 30 °C, 5% CO2 for 18 to 24 h in DMEM/F12 medium with added 500 μM ketamine and 10 μg/mL tetracycline (except for NR1-2B-CHO cells) without additional antibiotics. Cells were manually detached from the culture dish and automatically dispensed in QPatch wells with extracellular solution in the presence of 1 mM Mg^2+ and 500 μM ketamine.
(§3) Holding potential was −80 mV, and voltage protocol included a depolarizing 2-s step pulse to +60 mV to check the quality of the seal and cell NMDAR expression level, followed by a 2-s ramp-up to holding potential.

[4] = biological target: NR1-2D NMDAR (Homo sapiens, UniProt O15399+Q05586); experiment: Whole-cell manual patch-clamp REL-1017 CRC in 1 mM MgCl2; conditions: 1 mM MgCl2, 1 μM L-glutamate, −60 mV
[5] = biological target: T2, NR1-2C NMDAR (Homo sapiens, UniProt Q05586+Q14957); experiment: Whole-cell automated patch-clamp (QPatch) in 1 mM Mg2+; assay type: cell-based; set-up: host or cells: CHO (CHO-hN1-h2C), tetracycline-induced expression; conditions: 1 mM Mg2+
Procedure: as §1, §2, §3

[6] = biological target: T3, NR1-2A NMDAR (Homo sapiens, UniProt Q05586+Q12879); experiment: Whole-cell manual patch-clamp REL-1017 CRC in 1 mM MgCl2; conditions: 1 mM MgCl2, 1 μM L-glutamate, −60 mV
[7] = biological target: T2, NR1-2C NMDAR; experiment: as above; conditions: 1 mM MgCl2, 1 μM L-glutamate, −60 mV
[8] = biological target: T3, NR1-2A NMDAR; experiment: Whole-cell automated patch-clamp (QPatch) in 1 mM Mg2+; assay type: cell-based; set-up: host or cells: CHO (CHO-hNR1-h2A), tetracycline-induced expression; conditions: 1 mM Mg2+
Procedure: as §1, §2, §3

[9] = biological target: T2, NR1-2C NMDAR; experiment: Whole-cell manual patch-clamp: current block, onset/offset kinetics and trapping, no Mg2+; conditions: test item 10 µM, −70 mV
[10] = 10 μM REL-1017, 1 μM L-glutamate
[11] = 10 μM REL-1017, 10 μM L-glutamate

T3 sequence (Q12879 23-1464, other chains not shown): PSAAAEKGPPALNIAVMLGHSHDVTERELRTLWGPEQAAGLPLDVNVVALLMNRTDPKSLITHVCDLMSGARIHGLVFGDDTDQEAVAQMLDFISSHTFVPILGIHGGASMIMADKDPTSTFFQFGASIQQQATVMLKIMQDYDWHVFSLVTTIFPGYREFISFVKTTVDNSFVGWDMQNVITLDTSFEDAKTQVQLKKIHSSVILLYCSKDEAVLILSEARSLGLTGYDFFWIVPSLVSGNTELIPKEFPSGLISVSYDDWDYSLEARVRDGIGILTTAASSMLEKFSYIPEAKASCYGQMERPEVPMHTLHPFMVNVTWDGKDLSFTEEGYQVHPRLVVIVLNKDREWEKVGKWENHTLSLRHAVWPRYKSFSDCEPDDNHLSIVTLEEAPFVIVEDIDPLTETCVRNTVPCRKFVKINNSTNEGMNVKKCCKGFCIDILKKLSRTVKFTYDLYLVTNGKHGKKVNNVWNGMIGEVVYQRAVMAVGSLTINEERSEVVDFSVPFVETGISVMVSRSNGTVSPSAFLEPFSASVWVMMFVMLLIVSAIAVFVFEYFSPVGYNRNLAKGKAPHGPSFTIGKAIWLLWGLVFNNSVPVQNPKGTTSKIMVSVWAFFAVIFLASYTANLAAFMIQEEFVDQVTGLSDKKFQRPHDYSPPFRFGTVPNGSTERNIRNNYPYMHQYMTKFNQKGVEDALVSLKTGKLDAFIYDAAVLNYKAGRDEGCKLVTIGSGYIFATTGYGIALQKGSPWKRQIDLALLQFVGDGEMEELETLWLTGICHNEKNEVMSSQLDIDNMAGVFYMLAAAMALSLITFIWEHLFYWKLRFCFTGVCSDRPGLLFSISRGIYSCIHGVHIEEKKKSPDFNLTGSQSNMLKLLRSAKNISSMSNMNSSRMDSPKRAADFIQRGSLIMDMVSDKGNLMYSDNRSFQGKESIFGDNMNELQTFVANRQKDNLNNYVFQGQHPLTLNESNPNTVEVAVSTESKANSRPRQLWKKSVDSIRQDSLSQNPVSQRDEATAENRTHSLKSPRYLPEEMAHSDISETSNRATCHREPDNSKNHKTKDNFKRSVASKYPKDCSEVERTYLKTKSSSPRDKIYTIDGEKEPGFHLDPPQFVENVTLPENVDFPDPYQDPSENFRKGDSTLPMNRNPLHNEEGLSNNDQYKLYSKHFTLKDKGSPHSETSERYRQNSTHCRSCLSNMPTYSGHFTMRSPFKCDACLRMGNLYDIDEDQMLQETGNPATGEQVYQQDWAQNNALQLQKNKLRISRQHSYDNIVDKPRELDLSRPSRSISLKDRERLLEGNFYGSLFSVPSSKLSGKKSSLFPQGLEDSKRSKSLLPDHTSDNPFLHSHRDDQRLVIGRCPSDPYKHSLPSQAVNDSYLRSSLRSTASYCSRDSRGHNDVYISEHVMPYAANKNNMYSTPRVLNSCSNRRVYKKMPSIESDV
T2 sequence (Q14957 20-1233, other chains not shown): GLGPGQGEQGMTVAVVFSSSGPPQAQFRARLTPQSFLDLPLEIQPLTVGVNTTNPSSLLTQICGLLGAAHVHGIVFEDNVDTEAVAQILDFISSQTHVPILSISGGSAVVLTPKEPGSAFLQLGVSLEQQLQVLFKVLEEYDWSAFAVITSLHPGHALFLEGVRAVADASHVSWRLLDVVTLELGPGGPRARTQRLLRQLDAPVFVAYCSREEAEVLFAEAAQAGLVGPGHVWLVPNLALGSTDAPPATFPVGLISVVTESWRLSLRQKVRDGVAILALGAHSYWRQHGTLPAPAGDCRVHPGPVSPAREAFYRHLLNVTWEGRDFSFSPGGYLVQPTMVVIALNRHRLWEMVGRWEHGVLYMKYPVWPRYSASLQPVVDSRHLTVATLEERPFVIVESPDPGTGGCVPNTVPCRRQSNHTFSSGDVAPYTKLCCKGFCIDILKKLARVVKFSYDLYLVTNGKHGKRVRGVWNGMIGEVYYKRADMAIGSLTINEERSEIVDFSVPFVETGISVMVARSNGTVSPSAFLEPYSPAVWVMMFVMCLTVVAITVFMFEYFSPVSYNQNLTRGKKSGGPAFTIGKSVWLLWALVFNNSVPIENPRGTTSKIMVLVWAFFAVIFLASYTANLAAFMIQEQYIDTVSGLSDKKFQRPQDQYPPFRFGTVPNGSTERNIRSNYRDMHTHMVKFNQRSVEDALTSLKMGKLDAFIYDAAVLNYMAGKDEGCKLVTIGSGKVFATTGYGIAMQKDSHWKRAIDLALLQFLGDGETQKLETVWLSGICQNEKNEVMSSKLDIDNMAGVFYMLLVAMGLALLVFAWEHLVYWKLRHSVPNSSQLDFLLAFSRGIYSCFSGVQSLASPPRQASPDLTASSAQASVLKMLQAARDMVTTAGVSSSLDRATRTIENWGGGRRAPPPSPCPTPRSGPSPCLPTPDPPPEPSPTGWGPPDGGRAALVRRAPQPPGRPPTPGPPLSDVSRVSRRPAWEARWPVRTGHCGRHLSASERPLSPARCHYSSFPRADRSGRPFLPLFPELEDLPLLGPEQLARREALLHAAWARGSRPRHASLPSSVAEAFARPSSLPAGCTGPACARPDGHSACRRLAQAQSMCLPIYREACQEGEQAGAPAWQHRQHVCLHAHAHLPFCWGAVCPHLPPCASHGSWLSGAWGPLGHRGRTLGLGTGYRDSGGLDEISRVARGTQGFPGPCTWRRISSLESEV
T1 sequence (Q13224 27-1484, other chains not shown): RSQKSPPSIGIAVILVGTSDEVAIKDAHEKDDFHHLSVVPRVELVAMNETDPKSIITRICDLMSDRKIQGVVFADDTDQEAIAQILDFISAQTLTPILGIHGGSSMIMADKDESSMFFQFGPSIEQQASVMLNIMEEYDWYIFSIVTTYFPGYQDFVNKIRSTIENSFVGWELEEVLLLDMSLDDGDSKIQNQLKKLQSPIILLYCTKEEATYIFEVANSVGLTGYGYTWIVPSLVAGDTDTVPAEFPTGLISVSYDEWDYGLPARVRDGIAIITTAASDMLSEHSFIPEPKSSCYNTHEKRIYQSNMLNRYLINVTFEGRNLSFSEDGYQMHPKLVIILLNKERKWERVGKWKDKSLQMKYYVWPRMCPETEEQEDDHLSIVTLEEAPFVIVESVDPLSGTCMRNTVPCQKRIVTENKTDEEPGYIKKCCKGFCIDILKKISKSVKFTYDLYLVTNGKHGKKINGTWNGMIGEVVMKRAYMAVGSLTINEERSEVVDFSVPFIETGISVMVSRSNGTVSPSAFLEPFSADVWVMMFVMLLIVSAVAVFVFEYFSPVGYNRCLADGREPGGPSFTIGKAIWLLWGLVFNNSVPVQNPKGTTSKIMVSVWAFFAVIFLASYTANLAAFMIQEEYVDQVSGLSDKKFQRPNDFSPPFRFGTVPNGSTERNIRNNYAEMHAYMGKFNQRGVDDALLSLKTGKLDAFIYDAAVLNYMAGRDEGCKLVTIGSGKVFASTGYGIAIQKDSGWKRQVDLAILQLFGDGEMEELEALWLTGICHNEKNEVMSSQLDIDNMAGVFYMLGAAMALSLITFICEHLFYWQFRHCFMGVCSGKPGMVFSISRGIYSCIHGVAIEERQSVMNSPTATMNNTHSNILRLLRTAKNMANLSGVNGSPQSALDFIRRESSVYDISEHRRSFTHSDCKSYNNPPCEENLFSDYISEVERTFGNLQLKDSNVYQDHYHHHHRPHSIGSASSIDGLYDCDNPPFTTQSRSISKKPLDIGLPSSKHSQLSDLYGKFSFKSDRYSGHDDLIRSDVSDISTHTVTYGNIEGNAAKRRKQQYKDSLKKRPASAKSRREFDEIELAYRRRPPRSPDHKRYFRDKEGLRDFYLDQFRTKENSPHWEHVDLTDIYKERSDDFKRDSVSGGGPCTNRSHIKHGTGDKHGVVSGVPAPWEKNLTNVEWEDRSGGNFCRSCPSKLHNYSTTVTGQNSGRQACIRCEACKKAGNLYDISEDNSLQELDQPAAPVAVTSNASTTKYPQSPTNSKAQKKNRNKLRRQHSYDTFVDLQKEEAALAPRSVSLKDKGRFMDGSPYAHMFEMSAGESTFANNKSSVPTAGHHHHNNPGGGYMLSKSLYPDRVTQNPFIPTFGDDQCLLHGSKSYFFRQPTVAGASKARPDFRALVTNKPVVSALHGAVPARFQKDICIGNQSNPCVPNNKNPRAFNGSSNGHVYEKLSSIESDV

Row | Structure (SMILES) | IC50 ([1]; [3H]TCP 4 nM) | Ki ([1]; [3H]TCP, Cheng and Prusoff) | Hill Slope [2] | effect on L-glutamate-elicited current [3, 10] | effect on L-glutamate-elicited current [3, 11] | Hill Slope [4] | effect on L-glutamate-elicited current [5, 10] | effect on L-glutamate-elicited current [5, 11] | Hill Slope [6] | Hill Slope [7] | effect on L-glutamate-elicited current [8, 10] | effect on L-glutamate-elicited current ([8]; 10 μM REL-1017, 10 μM L-glutamate, −30 mV to −80 mV) | I1 (% Current) at end of test item addition, normalized to I0 ([9]; 30 s co-application) | I2 (% Current) at end of test item removal, normalized to I0 ([9]; 50 s after removal) | BR (residual block) ([9]; after wash with glycine alone) | B (initial block) [9] | BT (trapped block, BR/B × 100) [9] | Tau off [9] | Tau on [9]
1 | COc1ccc2c(c1)[C@]13CCCC[C@@H]1[C@H](C2)N(C)CC3 [Dextromethorphan, dextromethorphan] | 2060 nM | 1400 nM | – | – | – | – | – | – | – | – | – | – | – | – | – | – | – | – | –
2 | CCC(=O)C(C[C@H](C)N(C)C)(c1ccccc1)c1ccccc1 [REL-1017, dextromethadone HCl] | – | – | 1.17 | inactive | significantly reduced the elicited current only at −30 mV, −40 mV, and −50 mV | 1.42 | inactive | inactive | 1.06 | 1.49 | inactive | significantly reduced | 20.4% | 98.5% | 71.8 ± 1.1 | 84 ± 1% and 83.8 ± 1.2 % | 85.9 ± 1.9% | 17.7 ± 1.0 s | 4.7 ± 0.21 s
